From patent US10314885B2, “Oxytocin treatment to modify blood glucose and treat metabolic disease” (The Regents of the University of California, priority 2010, dated 2019)
Marks after values point to notes of the source that are not given here.

Key:
Type in all cases: in vivo, human
[1] = system: Subjects with a DSM-IV diagnosis of schizophrenia; assay: PANSS and CGI efficacy assessment, double-blind placebo-controlled crossover study of adjunctive intranasal oxytocin; details: for CGI-Severity score: Baseline of oxytocin arm (CGI-Severity, not CGI-Improvement); for CGI-I Cohen's d / PANSS Negative Cohen's d / PANSS Total Cohen's d: Week 3, oxytocin vs placebo; for PANSS Total Cohen's d: 0.2 small, 0.5 medium, 0.8 large
Source text: Participants. Subjects with a DSM-IV diagnosis of schizophrenia, confirmed by SCID interview, were enrolled in this double-blind, placebo-controlled, crossover study. Other main inclusion criteria were: minimum 18 years of age, treatment with 1 or 2 approved antipsychotic medication with no dose changes in the previous four weeks, Positive and Negative Syndrome Scale (PANSS) score of at least 55 and a Clinical Global Impressions-Severity (CGI-S) scale score of at least 4 (moderately ill) at randomization. Because it was hypothesized that oxytocin may improve paranoia due to its pro-trust effect, subjects were also required to have a score of at least 4 (moderate) on item 6 (suspiciousness/persecution) of the PANSS. This study was approved by the UCSD IRB and written informed consent was obtained from all subjects.
(§1) Study Drugs. Subjects were maintained on their pre-study antipsychotic medication regimen and doses were not changed during the study. Subjects received 3-weeks of daily intranasal oxytocin (Syntocinin, Novartis, Basel Switzerland) and 3-weeks of daily intranasal placebo. Oxytocin was dosed at 20 IU (5 sprays) twice a day for the first week and 40 IU (10 sprays) twice a day thereafter. Order of treatment (placebo-oxytocin or oxytocin-placebo) was randomly assigned using a computer generated random sequence.
Efficacy and Safety assessments. Subjects, raters and study staff enrolling patients were blinded to treatment condition. The total study duration for each individual subject was 7 weeks. Subjects were evaluated […]. Visit 1 and 5 were baseline assessments and visits 2, 3, 4 and 6, 7, 8 were the weekly visits for the two treatment periods, respectively. Washout occurred in the week between visit 4 and 5. At each visit raters assessed subjects utilizing the PANSS, CGI-S and CGI-Improvement (CGI-I). PANSS-total at the final visit of each treatment period was chosen a′ priori as the primary efficacy endpoint.
(§2) Safety was assessed at each visit by a medical exam, and assessments of reported adverse events. In addition, urine was collected for osmolality testing and blood was drawn at each visit and analyzed at UCSD laboratories for basic chemistry analysis. Statistical Methods. Data from all subjects who received at least one dose and one assessment in both treatment periods (intent-to-treat population) were subjected to analysisusing SPSS version 11.0. Baseline scores for both drug treatments were compared for similarity using paired t-test. The change in baseline scores from period 1 to period 2 was compared among the placebo-oxytocin versus oxytocin-placebo group using a two-sample t-test to assess for period carry-over effects. PANNS and CGI data were subjected to repeated measures ANOVA with drug and treatment-week as repeated measures factors. Treatment sequence was included as a between-subjects factor to evaluate possible period and carry-over effects. Paired t-tests, corrected for multiple-comparisons using Bonferoni method were used to compare placebo and oxytocin scores at endpoint and each the other assessment visits. Cohen's d statistic was calculated for each measure at endpoint.

[2] = Blood chemistry analysis and urine osmolality at endpoint
Procedure: as §1, §2

[3] = system: Subjects with a DSM-IV diagnosis of schizophrenia; assay: Letter Number Sequencing subtest (LNS) of WAIS-III; details: after 3 weeks of intranasal oxytocin
Source text: (§3) Participants. Subjects with a DSM-IV diagnosis of schizophrenia, confirmed by SCID interview, were enrolled in a double-blind, placebo-controlled, crossover study. Other main inclusion criteria were: minimum 18 years of age, treatment with 1 or 2 approved antipsychotic medication with no dose changes in the previous four weeks, a minimum Positive and Negative Syndrome Scale (PANSS) score of at least 55 with a minimum score of 4 and a Clinical Global Impressions-Severity (CGI-S) scale score of at least 4 (moderately ill) at randomization.
Study Drugs. Subjects were maintained on a stable dose of their pre-study antipsychotic medication regimen. In addition to their antipsychotics, subjects received 3-weeks of daily intranasal oxytocin (Syntocinin, Novartis, Basel Switzerland) dosed 20 IU twice a day for the first week and then 40 IU twice a day for weeks two and three, and 3-weeks of daily intranasal placebo. […]
The Letter Number Sequencing subtest (LNS) is a component of the larger WAIS-III and is used to measure attention and working memory. […] In each trial of the LNS, a list of letters and numbers are read in a mixed order to participants; participants are asked to recall first the digits and then the letters in the order they were presented. […] Scores are calculated by totaling the correct responses for each length. […]

[4] = system: Subjects with a DSM-IV diagnosis of schizophrenia; assay: California Verbal Learning Test (CVLT-II)
Source text: as §3
Study Drugs. Subjects were maintained on a stable dose of their pre-study antipsychotic medication regimen. In addition to their antipsychotics, subjects received 3-weeks of daily intranasal oxytocin (Syntocinin, Novartis, Basel Switzerland) dosed 20 IU twice a day for the first week and then 40 IU twice a day for weeks two and three, and 3-weeks of daily intranasal placebo. Order of treatment (placebo-oxytocin or oxytocin-placebo) was randomly assigned using a computer generated random sequence.
Safety and efficacy assessments. Subjects, raters, and study staff enrolling patients were blinded to treatment condition. The total study duration for each individual subject was 7 weeks, which included a baseline visit (V1), a three-week initial treatment period, a 1 week washout (between V4 and V5), a repeat baseline visit, and a three-week crossover treatment period. Subjects received the cognitive tests a total of 3 times: at baseline visits (V1, and after 3 weeks of treatment with placebo and oxytocin (V4, V7).
The CVLT-II is a commonly-used test of new learning and declarative verbal memory, which closely resembles the HVLT (Hopkins Verbal Learning Test), a part of the standardized MATRICS cognitive battery, now used to measure cognitive changes in Schizophrenia clinical trials. In the CVLT-II, lists of 16 words (List A) from various semantic categories are read over 5 trials. After each trial, subject is asked to recall as many words as they can (free recall). An interference list (List B) is then presented. Free and cued recall of List A is measured immediately following (short delay) and 20 minutes (long delay). At the end of the test, a 44 word recognition task is performed with subjects identifying target words among 28 distractors. The CVLT's format allows assessment of multiple aspects of cognition: overall recall ability, rate of learning over sequential trials, ability to retain learned material, and item recognition.
For each subtest a two-factor repeated ANOVA with drug treatment (placebo/oxytocin) and order of treatment as factors was conducted.

[5] = system: Subjects with a DSM-IV diagnosis of schizophrenia; assay: Reported adverse events in the crossover study
Procedure: as §1, §2

[6] = Baseline of oxytocin arm, mean (SD)
[7] = Week 1, intranasal 20 IU twice a day, mean (SD)
[8] = Week 2, intranasal 40 IU twice a day, mean (SD)
[9] = Week 3, intranasal 40 IU twice a day, mean (SD)
[10] = after 3 weeks of intranasal oxytocin, Mean (S.E.M.)
[11] = 3 weeks intranasal oxytocin, 15 completers

measured blood chemistry or urine osmolality, oxytocin versus placebo ([2]; at endpoint): no significant differences
BUN ([2]; blood, at endpoint): 10.8 mg/dL
Bicarb. ([2]; blood, at endpoint): 27.9 mmol/L
Calcium ([2]; blood, at endpoint): 9.3 mg/dL
Chloride ([2]; blood, at endpoint): 101.1 mmol/L
Creatinine ([2]; blood, at endpoint): 0.9 mg/dL
Potassium ([2]; blood, at endpoint): 4.4 mmol/L
Sodium ([2]; blood, at endpoint): 138.5 mmol/L
Urine Osmolality ([2]; urine, at endpoint): 607.9 mOsm/kg
SMILES: CC[C@H](C)[C@@H]1NC(=O)[C@H](Cc2ccc(O)cc2)NC(=O)[C@@H](N)CSSC[C@@H](C(=O)N2CCC[C@H]2C(=O)N[C@@H](CC(C)C)C(=O)NCC(N)=O)NC(=O)[C@H](CC(N)=O)NC(=O)[C@H](CCC(N)=O)NC1=O [Oxytocin, Cys-Tyr-Ile-Gln-Asn-Cys-Pro-Leu-Gly]
reduction on the PANSS-total ([1]; 3 weeks of treatment vs baseline (placebo 3.0 points)): 7.9 point
CGI-Severity score ([1]; mean (SD)): 4.67 (0.61)^
CGI-Severity score ([1]; mean (SD), listed as oxytocin): 4.67±0.74
PANSS Gen. Psy. score [1, 6]: 38.8 (7.6)
PANSS Negative score [1, 6]: 20.2 (4.7)
PANSS Positive score [1, 6]: 21.7 (4.1)
PANSS Total score ([1]; Baseline of oxytocin arm, mean (standard deviation)): 81.5 (12.4)
PANSS Total score ([1]; Baseline of oxytocin arm, mean (standard deviation), listed as oxytocin): 81.4±12.43
PANSS Total score ([1]; Week 1, intranasal 20 IU twice a day, adjunctive to antipsychotics, mean (SD)): 76.3 (11.3)
CGI-I score [1, 7]: 3.33 (0.62)
PANSS Gen. Psy. score [1, 7]: 36.4 (8.1)
PANSS Negative score [1, 7]: 20.1 (4.8)
PANSS Positive score [1, 7]: 20.6 (4.5)
PANSS Total score ([1]; Week 2, intranasal 40 IU twice a day, adjunctive to antipsychotics, mean (SD)): 76.9 (13.2)
CGI-I score [1, 8]: 3.33 (1.20)
PANSS Gen. Psy. score [1, 8]: 36.3 (8.2)
PANSS Negative score [1, 8]: 19.7 (4.3)
PANSS Positive score [1, 8]: 20.5 (4.6)
PANSS Total score ([1]; Week 3 (endpoint), intranasal 40 IU twice a day, adjunctive to antipsychotics, mean (SD)): 73.6 (13.6)**
CGI-I Cohen's d [1]: [0.74]
PANSS Negative Cohen's d [1]: [0.50]
PANSS Total Cohen's d [1]: [0.43]
PANSS Total Cohen's d ([1]; listed as oxytocin): 0.43
CGI-I Cohen's d ([1]; listed as oxytocin): 0.74
PANSS Negative Cohen's d ([1]; listed as oxytocin): 0.50
CGI-I score [1, 9]: 3.07 (0.70)**
PANSS Gen. Psy. score [1, 9]: 34.8 (6.9)
PANSS Negative score [1, 9]: 18.5 (4.5)*
PANSS Positive score [1, 9]: 19.9 (5.2)**
PANSS general psychopathology subscale, oxytocin versus placebo ([1]; any time point): not significantly different
PANSS-total difference oxytocin versus placebo ([1]; baseline): 0.60
PANSS-total scores, oxytocin versus placebo ([1]; endpoint (week 3) visit, p<0.001): significantly lower
PANSS-total difference oxytocin versus placebo ([1]; endpoint (week 3), p<0.001): 5.46
PANSS-total difference oxytocin versus placebo ([1]; week 1): 0.60
PANSS-total difference oxytocin versus placebo ([1]; week 2): 1.20
CGI-I, oxytocin versus placebo ([1]; week 3, P<0.001): significantly lower
PANSS positive subscale scores, oxytocin versus placebo ([1]; week 3, P=0.006): significantly lower
PANSS negative subscale scores, oxytocin versus placebo ([1]; week 3, p=0.023): significantly lower
Glucose ([2]; blood, at endpoint (week 3)): 112.5 mg/dL
blood glucose levels compared to placebo ([2]; intranasal administration): reduction in blood glucose levels
scores on the LNS, oxytocin versus placebo [3]: no significant difference
CVLT Long Delay Cued Recall Raw [4, 10]: 11.87 (0.97)
CVLT Long Delay Free Recall Raw [4, 10]: 10.87 (0.87)
CVLT Short Delay Cued Recall Raw [4, 10]: 12.00 (0.79)
CVLT Short Delay Free Recall Raw [4, 10]: 10.60 (1.03)
CVLT Total Intrusions Raw [4, 10]: 4.93 (1.90)
CVLT Total Recall Discriminability Raw [4, 10]: 2.22 (0.19)
CVLT Total Recognition Discriminability Raw [4, 10]: 2.97 (0.28)
CVLT Total Repetitions Raw [4, 10]: 13.67 (5.44)
CVLT Trials 1-5 Raw [4, 10]: 55.67 (3.65)
CVLT subscale scores, oxytocin versus placebo ([4]; all 9 subscales, after 3 weeks): scored higher
rates of reported adverse effects, oxytocin compared to placebo ([5]; 3 weeks each treatment): no significant differences
serious adverse events reported during the study ([5]; 3 weeks intranasal oxytocin twice daily): no serious adverse events
Dizzy or lightheaded, subjects reporting [5, 11]: 26.7%
Dyspepsia or nausea, subjects reporting [5, 11]: 26.7%
Headache, subjects reporting [5, 11]: 26.7%
Lethargy, subjects reporting [5, 11]: 0.0%
Nasal Irritation, subjects reporting [5, 11]: 26.7%
Sleep impairment, subjects reporting [5, 11]: 33.3%
tolerability ([5]; given twice daily for three weeks): well-tolerated
